US20060135415A1, “Immunomodulation and effect on cell processes relating to serotonin family receptors and the blood-brain barrier” (priority 2002, published 2006)

What was measured:
[1] = tested on: murine lymphocytes (BALB/c responders, C57/B6 stimulators); assay: Murine mixed lymphocyte reaction (BALB/c vs. C57BL6); assay type: cell-based, mouse; conditions: FIG. 10
Method: MLRs were performed essentially as described in Current Protocols in Immunology (1999, Section 3.12.6-3.12.7). That is, the primary spleen cells obtained from C57/B6J mice were used as stimulators. They were purified as described in Current Protocols in Immunology (1999, Section 3.1.5), and were irradiated (35 Gy) at the Hahnemann Hospital (Philadelphia, Pa.) blood bank facility. Primary spleen cells obtained from BALB/c/BYJ were depleted from the adherent cells using a nylon wool column, and were used as responders.
The various inhibitors were pre-plated onto 96 well, U-bottom plates and all experimental conditions were assayed at least in triplicate. 100,000 C57/B6 cells in RPMI medium, supplemented with 10% FBS, were plated into each well. 200,000 of BALB/c/BYJ cells were plated over the stimulator cells, to a final volume of 200 μl/well. Background controls received either no BALB/c cells, or no C57/B6 cells. One micro Ci of tritiated thymidine was added to each well after 4 days, and the plates were harvested 12 hours later.

[2] = tested on: ConA stimulated human lymphocytes; assay: Viable cell counts (trypan blue) during ConA stimulation; assay type: cell-based; conditions: 10 μg/ml ConA, manual counts over time (FIG. 11)
Method: FIG. 11 is a diagram depicting the effect of a 5HT type 1 receptor antagonist and a 5HT type 2 receptor antagonist on the cell numbers occurring during the mitogenic stimulation of human lymphocyte activation. The cells were stimulated with 10 μg/ml ConA. The cells were repurified on a Ficoll gradient prior to addition of the inhibitor. Trypan blue exclusion was used to count the viable cells.
To further assess the effects of propanolol (a general 5-HTR 1 antagonist) and risperidone (a general 5-HTR 2 antagonist) on the mitogenically stimulated lymphocyte culture, the number of viable cells were manually counted as the assay progressed. If the cells were not stimulated, there was no detectable change in the number of viable cells. When the cells were stimulated with ConA, a small lag period was observed and the beginning of the growth phase compared to the stimulation response curve observed in the absence of the inhibitor. […] Apparently, there is no decrease or increase compared with the starting cell numbers. It is unclear whether or not this is due too anergy, an inability to initiate the activation pathway, or both. […] Thus, based on the data presented here, the classes of antagonists that inhibit the type 2 serotonin receptors appear to be rate limiting for the lymphocyte activation processes.

[3] = tested on: allogeneic CTL response against P815 cells; assay: Murine allograft model, CTL killing of P815 target cells by splenocytes; assay type: in vivo, C57BL/6J mice; conditions: 5HT antagonists 200 μg/injection tail vein days 6 and 8; Cyclosporin A 100 μg ip daily from day −2; sacrifice day 14 (FIGS. 13, 14)
Method: The in vivo validation screen used was an art-recognized murine allogeneic rejection model as described in Zhan et al., 2000. For this assay, a complete MHC miss-match system was employed wherein 5×10^6 P815 cells ([H-2^d] DBA/2 mastocytoma) were injected into the peritoneal cavity of C57BL/6J (H-2^b) mice on day 0 of the experiment. These mice typically generate a strong cytotoxic T lymphocyte (CTL) reaction in response to P815 cells. Following the initial P815 cell inoculation, the mice were allowed to develop a CTL response (this usually takes about 10-14 days). […] Mice were then sacrificed on day 14 of the experiment as indicated in the figures; and the allogeneic CTL response was assayed as described previously (Tretiakova et al., 2000, Nature Biotechnology 18:984-988). The primary spleen cells from the treated and untreated animals were used in the direct CTL readout. Freshly obtained primary spleen cells were incubated with the [^3H] labeled target cells (P815 cells) at 100:1, 50:1, 25:1, and 12.5:1 ratios for 3.5 hours at 37° C. and harvested using a PHD harvester. The percentage of specific killing was determined using the formula % kill=(S−E)/S, where S is the amount of the DNA retained by the target cells in the absence of the effector cells and E is the amount of retained DNA in the presence of the effector cells (expressed in counts per minute; cpm).
This is an art-recognized model of allograft […] rejection based on that described by […]. (2000). In this model, there is a complete MHC mismatch between the P815 cells (H-2^d) and the C57BL6 mouse (H-2^b), thus ensuring an aggressive immune response. The data disclosed in FIG. 13, depicts results of experiments that included 6 treatment groups, each group consisting of three mice. Each mouse received 5×10^6 P815 cells injected into the peritoneal cavity on day 0 of the study. The first group was an untreated control group, which was used to establish the baseline response of the mice against the allogeneic stimulus. These mice, without any further treatments, were sacrificed, as were the other treatment groups, on day 14 of the study and their splenocytes assayed for target-specific killing of the P815 cells.
The average kill observed for the untreated group was about 45% at an effector to target ratio of 100:1. The second group was treated with risperidone, a 5HT-2 antagonist, administered via a tail vein bolus injection (200 μg/injection) on days 6 and 8 of the study. The timing of the drug administration was selected to ensure that the T cells were fully activated prior to the drug treatment. The third group was treated with propanolol, a 5HT-1 antagonist. All of the 5HT receptor antagonist-treated groups were treated as described for the risperidone-treated group. The fourth group was treated chronically with CyclosporinA. The Cyclosporin A was administered ip at a dosage of 100 μg/injection starting two days prior to the onset of the study, i.e., at day −2, and the injections were continued on a daily basis for the duration of the study.
Finally, studies conducted in vivo using the CD8-dependent allograft rejection model, in which P815 cells (a rapidly growing cell line taken from a mastocytoma in a DBA mouse), were expanded and used to create a robust rejection response in a C57BL6 mouse. In this study the mice received 5×10^6 P815 cells injected into their peritoneal cavity on day 0 of the study. The first group was an untreated control group (naïve animals), used to acquire the baseline response of the mice against the allogeneic stimulus. The positive controls were treated with the allogeneic cells without any further treatments. These animals were used to assess the induced allogeneic response against the P815 cells. […]

[4] = tested on: ConA stimulated human lymphocytes; assay: Human mitogenic (ConA) stimulation, 3H-thymidine incorporation; assay type: cell-based; conditions: for relief of phenelzine-induced inhibition / proliferative response, reagent added alone: 1 μg/ml ConA; for relief of phenelzine-induced inhibition: phenelzine-inhibited cells, reagents 100 μM (FIG. 6); for proliferative response, reagent added alone: reagent 100 μM (FIG. 6); for stimulation of ConA-activated human PBLs: reagents at 400 μM, time course (FIG. 4)
Method: Blood from healthy volunteers was drawn using venipuncture, using Vacutainer collection sets and heparinized collection vials. The blood was diluted 1:1 using HBSS to a total volume of 30 ml in 50 ml conical tubes (Fisher Scientific, Co., Pittsburgh, Pa.). […] Cells from the buffy coats were collected and the residual Histopaque was washed away using repeated centrifugations in HBSS. After washes, cells were resuspended at 5 million cells per ml in RPMI, supplemented with 2% FBS. To remove adherent cells, the suspension was plated onto a 6 well flat-bottom plate (Corning Costar), 3 ml/well, and incubated for 2 hours at 37° C., 5% CO2. Non-adherent cells were harvested after this incubation, were counted and resuspended in RPMI supplemented with 10% human serum (Sigma).
All drugs were pre-plated before the cell suspension was added onto each well of a 96-well round-bottom plate. All experimental conditions were assayed in at least triplicate. Cells suspended in RPMI supplemented with 10% human serum were plated at 100,000 cells per well to a final volume of 200 μl. […] Control samples received no ConA stimulation. The plates were incubated at 37° C. and 5% CO2.

[5] = tested on: T cells in macrophage-conditioned media; assay: Macrophage media-conditioning study, T cell proliferation in conditioned media; assay type: cell-based, mouse; conditions: assay shown in FIG. 1

Molecule | outcome of murine MLR [1] | number of viable cells [2] | allograft (CTL) response [3] | relief of phenelzine-induced inhibition [4] | proliferative response, reagent added alone [4] | stimulation of ConA-activated human PBLs [4] | restoration of T cell proliferation in conditioned media [5] | other results
5-methyl hydroxytryptamine | slight enhancement | – | – | – | – | – | – | –
CC(C)NC[C@H](O)COc1cccc2ccccc12 (racemic) [propanolol] | – | prevents the cell from growing | did not protect the mice from the allograft rejection response | – | – | – | – | –
CNc1cc(NS(=O)(=O)c2ccc(N)cc2)nc(NC)n1 [Ro 04-679] | had no effects on the outcome of the assay | – | – | – | – | – | – | –
Cc1nc2n(c(=O)c1CCN1CCC(c3noc4cc(F)ccc34)CC1)CCCC2 [risperidone] | – | caused a brief cell increase, followed by the elimination of the cells in culture | inhibited the allograft response to varying degrees | – | – | – | – | –
NCCc1c[nH]c2ccc(O)cc12 [serotonin, 5-hydroxytryptamine] | – | – | – | caused the assay to rebound to baseline levels | did not | enhanced the maximal stimulation of the cells | only marginally restored the assay | proliferative response ([4]; differing ConA concentrations 0.1-10 μg/ml, harvest 72 hours (FIG. 5)): has no effect on the assay until the highest dose of ConA
N[C@@H](Cc1c[nH]c2ccccc12)C(=O)O [tryptophan] | – | – | – | had very little effect | enhanced the proliferative response | enhanced the maximal stimulation of the cells | had no effect | proliferative response ([4]; 0.1 μg/ml ConA, harvest 72 hours (FIG. 5A)): augments the proliferative response; proliferative response ([4]; highest ConA dose 10 μg/ml, harvest 72 hours (FIG. 5C)): no enhancement at the highest level
